Experimental data taken from patent US20230085307A1, “PYRIDAZINONE COMPOUND AND HERBICIDE” (NISSAN CHEMICAL CORPORATION, priority 2019, published 2023).

Experiments:
Italian ryegrass [1] = assay: Test Example 5: herbicidal effect by foliage application, plastic box (Table 20, symbol K); type: in vivo, Italian ryegrass (Lolium multiflorum); conditions: foliage application, 320 g/ha, three weeks after application
Outline: (§1)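 Sow seeds spot-wise in sterilized diluvial soil; cover with ~1.5 cm soil. Grow 14 days in greenhouse, 25° C. to 30° C. Spray foliage with emulsion diluted to predetermined amount. Rate effect after 3 weeks.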

redroot pigweed [2] = assay: Test Example 5: herbicidal effect by foliage application, plastic box (Table 20, symbol N); type: in vivo, redroot pigweed (Amaranthus retroflexus); conditions: foliage application, 320 g/ha, three weeks after application
Outline: as §1

windgrass [3] = assay: Test Example 4: herbicidal effect by soil treatment (Table 19, symbol L); type: in vivo, windgrass (Apera spica-venti); conditions: amount of applied herbicide 320 g/ha
Outline: (§2)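 Soil-surface application: an emulsion agent diluted with water to the predetermined dose is sprayed uniformly over seeds lying under roughly 1.5 cm of sterilized diluvial soil. Boxes stay in a greenhouse at 25° C. to 30° C. Three weeks later, each species is graded on previously defined criteria.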

blackgrass [4] = assay: Test Example 5: herbicidal effect by foliage application, plastic box (Table 20, symbol J); type: in vivo, blackgrass (Alopecurus myosuroides); conditions: foliage application, 320 g/ha, three weeks after application
Outline: as §1

Chinese sprangletop = assay: Test Example 3: herbicidal effect by foliage application, Wagner pot (Table 18, symbol D); type: in vivo, chinese sprangletop (Leptochloa chinensis); conditions: 320 g/ha
Outline: (§3)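 Plants were sown in alluvial soil held under 0.1–0.5 cm standing water and grown 14 days in a greenhouse at 25–30 °C. An emulsifiable formulation, water-diluted to the set dose, was then sprayed onto the foliage, and effects were scored three weeks later using previously defined criteria.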

late watergrass = assay: Test Example 1: herbicidal activity, application before weed generation under submerged conditions (Table 16, symbol A); type: in vivo, late watergrass (Echinochloa oryzicola); conditions: 320 g/ha applied herbicide
Outline: (§4)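 Emulsion formulation, water-diluted to set dose, was put onto the flooded surface (4 cm depth, alluvial soil) the same day weeds were sown and 2.5-leaf rice transplanted. After 3 weeks at 25-30 °C under glass, each species was rated 0 (≤5% kill) to 5 (≥90% kill).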

oval-leafed pondweed = assay: Test Example 1: herbicidal activity, application before weed generation under submerged conditions (Table 16, symbol C); type: in vivo, oval-leafed pondweed (Monochoria vaginalis); conditions: 320 g/ha applied herbicide
Outline: as §4

blackgrass [5] = assay: Test Example 4: herbicidal effect by soil treatment (Table 19, symbol J); type: in vivo, blackgrass (Alopecurus myosuroides); conditions: amount of applied herbicide 320 g/ha
Outline: as §2

green foxtail [6] = assay: Test Example 5: herbicidal effect by foliage application, plastic box (Table 20, symbol G); type: in vivo, green foxtail (Setaria viridis); conditions: foliage application, 320 g/ha, three weeks after application
Outline: as §1

lambsquarters [7] = assay: Test Example 5: herbicidal effect by foliage application, plastic box (Table 20, symbol O); type: in vivo, lambsquarters (Chenopodium album); conditions: foliage application, 320 g/ha, three weeks after application
Outline: as §1

green foxtail [8] = assay: Test Example 4: herbicidal effect by soil treatment (Table 19, symbol G); type: in vivo, green foxtail (Setaria viridis); conditions: amount of applied herbicide 320 g/ha
Outline: as §2

velvetleaf [9] = assay: Test Example 4: herbicidal effect by soil treatment (Table 19, symbol M); type: in vivo, velvetleaf (Abutilon theophrasti); conditions: amount of applied herbicide 320 g/ha
Outline: as §2

persian speedwell [10] = assay: Test Example 5: herbicidal effect by foliage application, plastic box (Table 20, symbol R); type: in vivo, Persian speedwell (Veronica persica); conditions: foliage application, 320 g/ha, three weeks after application
Outline: as §1

false cleavers [11] = assay: Test Example 5: herbicidal effect by foliage application, plastic box (Table 20, symbol Q); type: in vivo, false cleavers (Galium spurium); conditions: foliage application, 320 g/ha, three weeks after application
Outline: as §1

barnyard grass [12] = assay: Test Example 3: herbicidal effect by foliage application, Wagner pot (Table 18, symbol H); type: in vivo, barnyard grass (Echinochloa crus-galli); conditions: 320 g/ha
Outline: as §3

Japanese bulrush = assay: Test Example 1: herbicidal activity, application before weed generation under submerged conditions (Table 16, symbol B); type: in vivo, Japanese bulrush (Schoenoplectus juncoides); conditions: 320 g/ha applied herbicide
Outline: as §4

southern crabgrass [13] = assay: Test Example 4: herbicidal effect by soil treatment (Table 19, symbol F); type: in vivo, southern crabgrass (Digitaria ciliaris); conditions: amount of applied herbicide 320 g/ha
Outline: as §2

barnyard grass [14] = assay: Test Example 5: herbicidal effect by foliage application, plastic box (Table 20, symbol H); type: in vivo, barnyard grass (Echinochloa crus-galli); conditions: foliage application, 320 g/ha, three weeks after application
Outline: as §1

velvetleaf [15] = assay: Test Example 5: herbicidal effect by foliage application, plastic box (Table 20, symbol M); type: in vivo, velvetleaf (Abutilon theophrasti); conditions: foliage application, 320 g/ha, three weeks after application
Outline: as §1

lambsquarters [16] = assay: Test Example 4: herbicidal effect by soil treatment (Table 19, symbol O); type: in vivo, lambsquarters (Chenopodium album); conditions: amount of applied herbicide 320 g/ha
Outline: as §2

persian speedwell [17] = assay: Test Example 4: herbicidal effect by soil treatment (Table 19, symbol R); type: in vivo, Persian speedwell (Veronica persica); conditions: amount of applied herbicide 320 g/ha
Outline: as §2

barnyard grass [18] = assay: Test Example 4: herbicidal effect by soil treatment (Table 19, symbol H); type: in vivo, barnyard grass (Echinochloa crus-galli); conditions: amount of applied herbicide 320 g/ha
Outline: as §2

Italian ryegrass [19] = assay: Test Example 4: herbicidal effect by soil treatment (Table 19, symbol K); type: in vivo, Italian ryegrass (Lolium multiflorum); conditions: amount of applied herbicide 320 g/ha
Outline: as §2

rice flat sedge = assay: Test Example 3: herbicidal effect by foliage application, Wagner pot (Table 18, symbol E); type: in vivo, rice flat sedge (Cyperus iria); conditions: 320 g/ha
Outline: as §3

wild oat [20] = assay: Test Example 4: herbicidal effect by soil treatment (Table 19, symbol I); type: in vivo, wild oat (Avena fatua); conditions: amount of applied herbicide 320 g/ha
Outline: as §2

redroot pigweed [21] = assay: Test Example 4: herbicidal effect by soil treatment (Table 19, symbol N); type: in vivo, redroot pigweed (Amaranthus retroflexus); conditions: amount of applied herbicide 320 g/ha
Outline: as §2

windgrass [22] = assay: Test Example 5: herbicidal effect by foliage application, plastic box (Table 20, symbol L); type: in vivo, windgrass (Apera spica-venti); conditions: foliage application, 320 g/ha, three weeks after application
Outline: as §1

wild oat [23] = assay: Test Example 5: herbicidal effect by foliage application, plastic box (Table 20, symbol I); type: in vivo, wild oat (Avena fatua); conditions: foliage application, 320 g/ha, three weeks after application
Outline: as §1

chickweed [24] = assay: Test Example 4: herbicidal effect by soil treatment (Table 19, symbol P); type: in vivo, common chickweed (Stellaria media); conditions: amount of applied herbicide 320 g/ha
Outline: as §2

false cleavers [25] = assay: Test Example 4: herbicidal effect by soil treatment (Table 19, symbol Q); type: in vivo, false cleavers (Galium spurium); conditions: amount of applied herbicide 320 g/ha
Outline: as §2

chickweed [26] = assay: Test Example 5: herbicidal effect by foliage application, plastic box (Table 20, symbol P); type: in vivo, common chickweed (Stellaria media); conditions: foliage application, 320 g/ha, three weeks after application
Outline: as §1

southern crabgrass [27] = assay: Test Example 5: herbicidal effect by foliage application, plastic box (Table 20, symbol F); type: in vivo, southern crabgrass (Digitaria ciliaris); conditions: foliage application, 320 g/ha, three weeks after application
Outline: as §1

SMILES: COc1ccc(F)c(-c2sc3ccccc3c2-c2c(O)c(C)nn(C)c2=O)c1 [1-053]
- herbicidal effect grade, K: Italian ryegrass (Italian ryegrass [1]): 3 (Herbicidal rate of 40% or more and less than 70%)
- herbicidal effect grade, N: redroot pigweed (redroot pigweed [2]): 4 (Herbicidal rate of 70% or more and less than 90%)
- herbicidal effect rating, L: windgrass (windgrass [3]): 0 (Herbicidal rate of 5% or less (almost no effect))
- herbicidal effect grade, J: blackgrass (blackgrass [4]): 2 (Herbicidal rate of 20% or more and less than 40%)
- herbicidal effect on D (Chinese sprangletop), rating 0-5 (Chinese sprangletop): 0 (Herbicidal rate of 5% or less (almost no effect))
- Herbicidal effect on A: late watergrass (grade 0-5) (late watergrass): 3 (Herbicidal rate of 40% or more and less than 70%)
- Herbicidal effect on C: oval-leafed pondweed (grade 0-5) (oval-leafed pondweed): 1 (Herbicidal rate of 5% or more and less than 20%)
- herbicidal effect rating, J: blackgrass (blackgrass [5]): 0 (Herbicidal rate of 5% or less (almost no effect))
- herbicidal effect grade, G: green foxtail (green foxtail [6]): 4 (Herbicidal rate of 70% or more and less than 90%)
- herbicidal effect grade, O: lambsquarters (lambsquarters [7]): 4 (Herbicidal rate of 70% or more and less than 90%)
- herbicidal effect rating, G: green foxtail (green foxtail [8]): 3 (Herbicidal rate of 40% or more and less than 70%)
- herbicidal effect rating, M: velvetleaf (velvetleaf [9]): 2 (Herbicidal rate of 20% or more and less than 40%)
- herbicidal effect grade, R: persian speedwell (persian speedwell [10]): 5 (Herbicidal rate of 90% or more (almost completely withered))
- herbicidal effect grade, Q: false cleavers (false cleavers [11]): 3 (Herbicidal rate of 40% or more and less than 70%)
- herbicidal effect on H (barnyard grass), rating 0-5 (barnyard grass [12]): 3 (Herbicidal rate of 40% or more and less than 70%)
- Herbicidal effect on B: Japanese bulrush (grade 0-5) (Japanese bulrush): 2 (Herbicidal rate of 20% or more and less than 40%)
- herbicidal effect rating, F: southern crabgrass (southern crabgrass [13]): 2 (Herbicidal rate of 20% or more and less than 40%)
- herbicidal effect grade, H: barnyard grass (barnyard grass [14]): 3 (Herbicidal rate of 40% or more and less than 70%)
- herbicidal effect grade, M: velvetleaf (velvetleaf [15]): 5 (Herbicidal rate of 90% or more (almost completely withered))
- herbicidal effect rating, O: lambsquarters (lambsquarters [16]): 5 (Herbicidal rate of 90% or more (almost completely withered))
- herbicidal effect rating, R: persian speedwell (persian speedwell [17]): 3 (Herbicidal rate of 40% or more and less than 70%)
- herbicidal effect rating, H: barnyard grass (barnyard grass [18]): 1 (Herbicidal rate of 5% or more and less than 20%)
- herbicidal effect rating, K: Italian ryegrass (Italian ryegrass [19]): 3 (Herbicidal rate of 40% or more and less than 70%)
- herbicidal effect on E (rice flat sedge), rating 0-5 (rice flat sedge): 1 (Herbicidal rate of 5% or more and less than 20%)
- herbicidal effect rating, I: wild oat (wild oat [20]): 0 (Herbicidal rate of 5% or less (almost no effect))
- herbicidal effect rating, N: redroot pigweed (redroot pigweed [21]): 4 (Herbicidal rate of 70% or more and less than 90%)
- herbicidal effect grade, L: windgrass (windgrass [22]): 3 (Herbicidal rate of 40% or more and less than 70%)
- herbicidal effect grade, I: wild oat (wild oat [23]): 3 (Herbicidal rate of 40% or more and less than 70%)
- herbicidal effect rating, P: chickweed (chickweed [24]): 5 (Herbicidal rate of 90% or more (almost completely withered))
- herbicidal effect rating, Q: false cleavers (false cleavers [25]): 0 (Herbicidal rate of 5% or less (almost no effect))
- herbicidal effect grade, P: chickweed (chickweed [26]): 5 (Herbicidal rate of 90% or more (almost completely withered))
- herbicidal effect grade, F: southern crabgrass (southern crabgrass [27]): 3 (Herbicidal rate of 40% or more and less than 70%)
